Patent US20070231258A1, “Peptide conjugates” (KARYON CTT LTD., priority 2006, published 2007)
*1 amine or outer side, *2 acyl side, *3 side chain or, on linkers, in order; H or OH if unused. Bridges are numbered along the chain shown (N, C = ends). Primed or numbered codes have the meaning given here. [ ]: non-standard residue; d: D form. DTPA′ = diethylenetriaminepentaacetic acid chelator; NHCH2CH2SCH2CO = O=C(CSCCN[*:1])[*:2]; Cysteamide = C(CS[*:3])N[*:1]; AEEEA = NCCOCCOCCOCC(=O)O; AABz = not defined here

Legend:
C8161T = assay: Cell binding assay of immobilized peptide conjugate (MTT detection); type: cell-based, human; conditions: C8161T cells, wells coated at 30 μg/ml, 30 min 37° C.
Procedure: The human melanoma cell line C8161 has been described previously by Welch et al. in Int. J. Cancer, 1991, 47: 227-237. A more metastatic cell line C8161T, called herein also “C8161T”, was developed by culturing cells from a subcutaneous melanoma tumor developed after inoculation of C8161 melanoma cells on the flank of a nude mouse. The cell line was cultured in DMEM medium adjusted to contain 2 mM L-glutamine, 1% penicillin/streptomycin, and 10% fetal bovine serum.
Preparation of plates for the assays. Wells of Reacti-Bind Maleimide activated clear strip plate (Pierce, Prod#. 15150) were coated with a peptide conjugate a*YGFVWGEE*-(Teg-E)2-EAT, Compound MJ013 prepared in Example 3, at a concentration of 30 μg/ml. The incubation was carried out overnight at 20° C. The binding buffer containing unbound peptide was re-moved from the wells. […]
(§1) Cell binding assay: 75000 cells in volume of 150 μl of medium were added into coated wells and were incubated for 30 min at 37° C. […] After formazan was solubilized by 10% SDS-0,01 M HCl, it was quantified with an ELISA spectrometer (ThermoLabsystems Multiscan EX) at 560 nm. […] The following day the absorbance of plate was measured at 560 nm with an ELISA-reader (ThermoLab-systems, Multiskan EX).

HCT-15-LM1 = assay: as above; type: cell-based, human; conditions: HCT-15-LM1 cells, wells coated at 30 μg/ml, 30 min 37° C.
Description: The colorectal cancer cell line HCT-15-LM1 was developed as follows. The cell culture was started with cancer cells from lung metastases which had developed after injection of human colorectal cancer HCT-15 cells into the bloodstream of a mouse. The inoculation procedure was then repeated with HCT-15-LM1 cells leading to the establishment of another metastatic cell line, HCT-15-LM2.
(§2) Preparation of plates for the assays. Wells of Reacti-Bind Maleimide activated clear strip plate (Pierce, Prod#. 15150) were coated with a peptide conjugate a*YGFVWGEE*-(Teg-E)2-EAT, Compound MJ013 prepared in Example 3, at a concentration of 30 μg/ml. The incubation was carried out overnight at 20° C. The binding buffer containing unbound peptide was re-moved from the wells.
(§3) The wells were blocked with blocking buffer (0.5% BSA, 0.05% Tween20 in phosphate buffer saline (PBS). PBS was prepared as follows: 40 g of NaCl, 1 g of KCl, 7 g of Na2HPO4×2H2O and 1 g of KH2PO4 were dissolved in 1000 ml of deionized H2O). […]
as §1

NIH3T3 = assay: as above; type: cell-based, mouse; conditions: control cell line NIH3T3, wells coated at 30 μg/ml, 30 min 37° C.
Procedure: The mouse fibroblast line NIH3T3, called herein also “NIH3T3”, has been described previously by Koga et al. in Gann, 1979, 70: 585-591. The cell line was cultured in DMEM medium adjusted to contain 2 mM L-glutamine, 1% penicillin/streptomycin, and 10% fetal bovine serum.
as §2
as §3, with “H2O). Blank wells as controls were prepared by treating empty wells with blocking buffer.” for “H2O).”
as §1

HCT-15 = assay: as above; type: cell-based, human; conditions: HCT-15 cells, wells coated at 30 μg/ml, 30 min 37° C.
Procedure: The human colorectal cancer HCT-15 cell line (ATCC: CCL-225), called herein also “HCT-15”, was cultured in RPMI 1640 medium with 2 mM L-glutamine adjusted to contain 1.5 g/L sodium bicarbonate, 4.5 g/L glucose, 10 mM HEPES, and 1.0 mM sodium pyruvate, 1% penicillin/streptomycin, 10% fetal bovine serum.
as §2
as §3, with “H2O). Blank wells as controls were prepared by treating empty wells with blocking buffer.” for “H2O).”
as §1

SVEC4-10 = assay: as above; type: cell-based, mouse; conditions: control cell line SVEC4-10, wells coated at 30 μg/ml, 30 min 37° C.
Procedure: The mouse vascular endothelial cell line SVEC4-10, called herein also “SVEC4-10”, has been described previously by O'Connell et al. in J. Immunol., 1990, 144: 521-525. The cell line was cultured in DMEM medium adjusted to contain 2 mM L-glutamine, 1% penicillin/streptomycin, and 10% fetal bovine serum.
as §2
as §3, with “H2O). Blank wells as controls were prepared by treating empty wells with blocking buffer.” for “H2O).”
as §1

HSC-3 = assay: as above; type: cell-based, human; conditions: HSC-3 cells, wells coated at 30 μg/ml, 30 min 37° C.
Procedure: The human oral squamous cell carcinoma line HSC-3, called herein “HSC-3” (JCRB Cell Bank 0623, National Institute of Health Sciences, Japan) was cultivated in 1:1 DMEM and Ham's F 12 medium containing 10% FBS 1% penicillin/streptomycin, L-glutamate and sodium pyruvate and 0.4 ng/ml hydrocortisone.
as §2
as §3, with “H2O). Blank wells as controls were prepared by treating empty wells with blocking buffer.” for “H2O).”
as §1

[1] = Plasma stability of the peptide conjugates in human blood plasma/PBS (HPLC)
Procedure: The peptide conjugates (10-20 μg) was added to a human blood plasma/PBS mixture (1:1) in a total volume of 500 μl and incubated at 37° C. After incubation 100 μl per time point (0 and 240 min) was transferred to YM-10 (Microcon, cut-off 10000 MW; manufacturer Millipore), centrifuged (10000 RPM) 15 min at 4° C. 50 μl of the spin-through material was analyzed by HPLC.
HPLC: Waters 626 pump, 600S controller, Waters 996 photo diode array detector. Column: C18, 300 Å, 5 μm, 2.1×250 mm. Eluents for the non-conjugated functional peptides: A 0.1% TFA, B 0.075% TFA/100% ACN. Gradient: 0-100% B in 60 min. Flow: 180 μl/min. Loop: 50 μl.
Eluents for the functional peptide conjugates: Eluent A: 0.05 M ammonium acetate; B: 50% 0.05 M ammonium acetate/50% ACN. Gradient: 0-100% B in 60 min. Flow: 180 μl/min. Loop: 50 μl. One-minute fractions were collected and analyzed with MALDI-TOF.
Peptide mass: Bruker Ultraflex MALDI-TOF, N2-laser 337 nm, matrix saturated solution of α-cyano-4-hydroxycinnamic acid, reflector mode.

HCT-15 tumors = assay: Biodistribution of cystine- and lactam-bridged conjugates (Eu content) in HCT-15 tumor-bearing mice; type: in vivo, athymic-nu nude mice; conditions: 4 nmol MJ018 vs 16 nmol MJ069 i.v., 15 min circulation
Procedure: The biodistribution of the targeting agents MJ018 (lactam-bridged; described in Example 4) and MJ069 (cystine-bridged; described below) comprising functional peptide YGFVWGE was compared in mice carrying primary tumors of HTC-15, a human colorectal cancer cell line.
For production of experimental tumors, 22.5 million (for MJ018), and 1 million (for MJ069) HCT-15 cells were injected subcutaneously into both flanks of athymic-nu nude mice (Harlan Laboratories). The human colorectal cancer HCT-15 cell line (ATCC: CCL-225), called herein also “HCT-15”, was cultured in RPMI 1640 medium with 2 mM L-glutamine adjusted to contain 1.5 g/L sodium bicarbonate, 4.5 g/L glucose, 10 mM HEPES, and 1.0 mM sodium pyruvate, 1% penicillin/streptomycin, 10% fetal bovine serum.
Tumors were harvested when they had reached a minimum weight of 0.1 g. […]
For determination of the Eu content of the tumors and control or gans, 0.05-0.2 g of tissue was transferred into lysis buffer (20 mM Tris-HCl, 150 mM NaCl, 1% Nonident P40, pH 7.5) and homogenised. The Eu-content was determined from tissue lysates prepared into Enhancement solution (Perkin Elmer Wallac Ltd., Turku, Finland) and transferred to DELFIA Micro titration strip plates (Perkin Elmer Wallac Ltd., Turku, Finland). Time-resolved fluorescence was measured after incubation with a Wallac 1420 VICTOR3™ V plate reader using a D615 nm filter.

Substance	cell binding to immobilized peptide conjugate (absorbance at 560 nm) (C8161T)	cell binding to immobilized peptide conjugate (absorbance at 560 nm) (HCT-15-LM1)	cell binding to immobilized peptide conjugate (absorbance at 560 nm) (NIH3T3)	cell binding to immobilized peptide conjugate (absorbance at 560 nm) (HCT-15)	cell binding to immobilized peptide conjugate (absorbance at 560 nm) (SVEC4-10)	cell binding to immobilized peptide conjugate (absorbance at 560 nm) (HSC-3)	Observed compound peak heights prior to incubation ([1]; 0 h, human blood plasma/PBS 1:1, 37° C.) [%]	Observed compound peak heights after four hours ([1]; 4 h, human blood plasma/PBS 1:1, 37° C.) [%]	degradation during incubation in plasma ([1]; 4 h incubation in human plasma)	accumulation in tumor tissue (tissue-to-muscle Eu content), lactam- vs cystine-bridged (HCT-15 tumors)
a*YGFVWGEE*-(Teg-E)2-EAT (YGFVWGEE[AEEEA]E[AEEEA]E-Cysteamide; lactam N-8; not fully specified (N-terminus)) [MJ013]	bind selectively	bind selectively	significantly less binding	bind selectively	significantly less binding	bind selectively				
a*YGFVWGEE*-(Teg-E)2-AEM-AABz-DTPA-Eu (YGFVWGEE[AEEEA]E[AEEEA]E-{NHCH2CH2SCH2CO-AABz-DTPA′}; lactam N-8; not fully specified (N-terminus); reading uncertain; also: DTPA chelate of Eu) [MJ018]							100	100	no degradation	accumulated more strongly in the tumor tissue than the cystine-bridged conjugate MJ069
